Assay results published in ChEMBL document CHEMBL3797042, “Hybrid Pyrrole-Imidazole Alkaloids from the Sponge Agelas sceptrum” (J Nat Prod, 2016).
Values after ≈ are worked out from the molar mass of the structure shown. Active and inactive are the calls of the source. The rule behind the calls is not given here.

How the values were obtained:
Staphylococcus aureus [1] = assay: Antimicrobial activity against methicillin-resistant Staphylococcus aureus after 24 hrs by microdilution method; type: functional, organism-based
Staphylococcus aureus [2] = assay: Antimicrobial activity against methicillin-sensitive Staphylococcus aureus after 24 hrs by microdilution method; type: functional, organism-based
Micrococcus luteus = assay: Antimicrobial activity against Micrococcus luteus after 24 hrs by microdilution method; type: functional
Pseudomonas aeruginosa = assay: Antimicrobial activity against Pseudomonas aeruginosa after 24 hrs by microdilution method; type: functional, organism-based
Klebsiella pneumoniae = assay: Antimicrobial activity against Klebsiella pneumoniae after 24 hrs by microdilution method; type: functional
Candida albicans = assay: Antimicrobial activity against Candida albicans after 24 hrs by microdilution method; type: functional, organism-based
L929 = assay: (§1) Cytotoxicity against mouse L929 cells after 5 days by WST-1 assay; type: cell-based; settings: for IC90: mouse, l929, 120 h
[3] = (§2) Cytotoxicity against human KB3-1 cells after 5 days by WST-1 assay; type: functional, cell-based, KB 3-1
MCF7 = assay: Cytotoxicity against human MCF7 cells after 5 days by WST-1 assay; type: functional, cell-based
[4] = Cytotoxicity against human FS4-LTM cells after 24 hrs by WST-1 assay; type: cell-based; settings: for IC90: human, 24 h
KB 3-1 = assay: as §2; type: functional, cell-based
[5] = as §1; type: cell-based; settings: mouse, L929 cells
[6] = Homo sapiens, KB 3-1, 120 h, read-out: IC50

Row | Compound | MIC (Staphylococcus aureus [1]) | MIC (Staphylococcus aureus [2]) | MIC (Micrococcus luteus) | MIC (Pseudomonas aeruginosa) | MIC (Klebsiella pneumoniae) | MIC (Candida albicans) | IC50 (L929; l929) | IC90 (L929) | IC90 ([3]; Homo sapiens, KB 3-1, 120 h) | IC50 [3, 6] | IC90 (MCF7) | IC50 (MCF7; mcf7) | IC50 [4] | IC90 [4] | IC50 ([3]; kb 3-1) | IC90 (KB 3-1) | IC90 at 120 h [5] | IC50 (L929; Mus musculus, L929, 120 h, read-out: IC50) | IC90 (MCF7; Homo sapiens, MCF7, 120 h) | IC50 (MCF7; Homo sapiens, MCF7, 120 h, read-out: IC50)
1 | NCCC(=O)c1cccc2c1N[C@H](CNC(=O)c1cc(Br)c(Br)[nH]1)[C@@H](c1cnc(N)[nH]1)O2 | inactive | inactive | inactive | inactive | inactive | inactive | Not Active | Not Active | ≥ 130 µM | 44 µM | inactive | Not Active | Not Active | Not Active | – | – | – | – | – | –
2 | Nc1ncc(/C=C/CNC(=O)c2cc(Br)c(Br)[nH]2)[nH]1 [OROIDIN] | inactive | inactive | inactive | inactive | inactive | inactive | Not Active | Not Active | – | – | inactive | Not Active | Not Active | Not Active | Not Active | inactive | – | – | – | –
3 | Nc1ncc([C@@H]2[C@@H](CNC(=O)c3cc(Br)c[nH]3)[C@H](CNC(=O)c3cc(Br)c[nH]3)[C@H]2c2cnc(N)[nH]2)[nH]1 | inactive | inactive | 32 µM (≈ 19.8 µg/mL) | inactive | 32 µM (≈ 19.8 µg/mL) | inactive | – | – | 2390 µM | 80 µM | – | – | Not Active | Not Active | – | – | ≥ 238 µM | 193 µM | ≥ 238 µM | 238 µM
4 | C[n+]1cnc2[nH]c(=O)n(-c3nc(N)[nH]c3[C@@H]3[C@@H](CNC(=O)c4cc(Br)c[nH]4)[C@H](CNC(=O)c4cc(Br)c[nH]4)[C@H]3c3cnc(N)[nH]3)c2c1N | inactive | inactive | inactive | inactive | inactive | inactive | Not Active | Not Active | – | – | inactive | Not Active | Not Active | Not Active | Not Active | inactive | – | – | – | –
5 | Nc1ncc([C@@H]2[C@@H](CNC(=O)c3ccc[nH]3)[C@H](CNC(=O)c3cc(Br)c[nH]3)[C@H]2c2cnc(N)[nH]2)[nH]1 | inactive | inactive | inactive | inactive | inactive | inactive | Not Active | Not Active | 92 µM | 29 µM | inactive | Not Active | Not Active | Not Active | – | – | – | – | – | –
